Experimental data reported in the supplement of paper PMC11451515.

Tested on: SEM cells
Assay: cell viability relative to DMSO control; higher = less cytotoxic
Details: 48 h
Outline: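 Viability is a per-plate percentage relative to DMSO wells, with cell-free wells as background. CellTiter-Glo One luminescence was read after 48 h at 37°C on 1536-well plates (5 μl) of NOMO1 or SEM (500 cells/well) or P12-Ichikawa (1000 cells/well) leukemia cells. The cells had been adapted for at least four passages in each medium and pin-dosed with library compounds in DMSO from 47 μM to 0.79 nM in 11 threefold steps.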

[1] = HPLM + 10% dialyzed FBS, 0.000781 µM
[2] = HPLM + 10% dialyzed FBS, 0.00234 µM
[3] = HPLM + 10% dialyzed FBS, 0.00702 µM
[4] = HPLM + 10% dialyzed FBS, 0.0211 µM
[5] = HPLM + 10% dialyzed FBS, 0.0632 µM
[6] = HPLM + 10% dialyzed FBS, 0.19 µM
[7] = HPLM + 10% dialyzed FBS, 0.569 µM
[8] = HPLM + 10% dialyzed FBS, 1.71 µM
[9] = HPLM + 10% dialyzed FBS, 5.12 µM
[10] = HPLM + 10% dialyzed FBS, 15.4 µM
[11] = HPLM + 10% dialyzed FBS, 46.1 µM
[12] = RPMI 5 mM glucose + 10% FBS, 0.000781 µM
[13] = RPMI 5 mM glucose + 10% FBS, 0.00234 µM
[14] = RPMI 5 mM glucose + 10% FBS, 0.00702 µM
[15] = RPMI 5 mM glucose + 10% FBS, 0.0211 µM
[16] = RPMI 5 mM glucose + 10% FBS, 0.0632 µM
[17] = RPMI 5 mM glucose + 10% FBS, 0.19 µM
[18] = RPMI 5 mM glucose + 10% FBS, 0.569 µM
[19] = RPMI 5 mM glucose + 10% FBS, 1.71 µM
[20] = RPMI 5 mM glucose + 10% FBS, 5.12 µM
[21] = RPMI 5 mM glucose + 10% FBS, 15.4 µM
[22] = RPMI 5 mM glucose + 10% FBS, 46.1 µM
[23] = RPMI 5 mM glucose + 10% dialyzed FBS, 0.000781 µM
[24] = RPMI 5 mM glucose + 10% dialyzed FBS, 0.00234 µM
[25] = RPMI 5 mM glucose + 10% dialyzed FBS, 0.00702 µM
[26] = RPMI 5 mM glucose + 10% dialyzed FBS, 0.0211 µM
[27] = RPMI 5 mM glucose + 10% dialyzed FBS, 0.0632 µM
[28] = RPMI 5 mM glucose + 10% dialyzed FBS, 0.19 µM
[29] = RPMI 5 mM glucose + 10% dialyzed FBS, 0.569 µM
[30] = RPMI 5 mM glucose + 10% dialyzed FBS, 1.71 µM
[31] = RPMI 5 mM glucose + 10% dialyzed FBS, 5.12 µM
[32] = RPMI 5 mM glucose + 10% dialyzed FBS, 15.4 µM
[33] = RPMI 5 mM glucose + 10% dialyzed FBS, 46.1 µM

## CC(C)(S)[C@@H](N)C(=O)O
[1]
  cell viability: 75.7%
[2]
  cell viability: 94.7%
[3]
  cell viability: 96%
[4]
  cell viability: 109%
[5]
  cell viability: 72.8%
[6]
  cell viability: 108%
[7]
  cell viability: 90.5%
[8]
  cell viability: 110%
[9]
  cell viability: 97.3%
[10]
  cell viability: 104%
[11]
  cell viability: 20%
[12]
  cell viability: 75%
[13]
  cell viability: 94.5%
[14]
  cell viability: 100%
[15]
  cell viability: 100%
[16]
  cell viability: 64.8%
[17]
  cell viability: 110%
[18]
  cell viability: 110%
[19]
  cell viability: 107%
[20]
  cell viability: 113%
[21]
  cell viability: 107%
[22]
  cell viability: 13.3%
[23]
  cell viability: 91.1%
[24]
  cell viability: 99.8%
[25]
  cell viability: 105%
[26]
  cell viability: 99.4%
[27]
  cell viability: 84.9%
[28]
  cell viability: 103%
[29]
  cell viability: 104%
[30]
  cell viability: 107%
[31]
  cell viability: 122%
[32]
  cell viability: 116%
[33]
  cell viability: 16.1%

## C[C@@H]1CN(Cc2ccc(F)cc2)[C@@H](C)CN1C(=O)c1cc2c(C(=O)C(=O)N(C)C)cn(C)c2cc1Cl
[1]
  cell viability: 97.6%
[2]
  cell viability: 99.7%
[3]
  cell viability: 100%
[4]
  cell viability: 111%
[5]
  cell viability: 111%
[6]
  cell viability: 109%
[7]
  cell viability: 106%
[8]
  cell viability: 102%
[9]
  cell viability: 85.6%
[10]
  cell viability: 98.2%
[11]
  cell viability: 97.2%
[12]
  cell viability: 84.5%
[13]
  cell viability: 78.1%
[14]
  cell viability: 85%
[15]
  cell viability: 87.2%
[16]
  cell viability: 101%
[17]
  cell viability: 91.1%
[18]
  cell viability: 96.8%
[19]
  cell viability: 87.4%
[20]
  cell viability: 97.6%
[21]
  cell viability: 72.3%
[22]
  cell viability: 57%
[23]
  cell viability: 115%
[24]
  cell viability: 104%
[25]
  cell viability: 110%
[26]
  cell viability: 107%
[27]
  cell viability: 119%
[28]
  cell viability: 108%
[29]
  cell viability: 108%
[30]
  cell viability: 109%
[31]
  cell viability: 82.3%
[32]
  cell viability: 97.2%
[33]
  cell viability: 75.4%

## CC(C)N(C[C@H]1O[C@@H](n2cnc3c(N)ncnc32)[C@H](O)[C@@H]1O)[C@H]1C[C@@H](CCc2nc3cc(C(C)(C)C)ccc3[nH]2)C1
[1]
  cell viability: 85.1%
[2]
  cell viability: 87.1%
[3]
  cell viability: 101%
[4]
  cell viability: 90.5%
[5]
  cell viability: 82%
[6]
  cell viability: 95.7%
[7]
  cell viability: 96.6%
[8]
  cell viability: 100%
[9]
  cell viability: 82%
[10]
  cell viability: 85.4%
[11]
  cell viability: 4.22%
[12]
  cell viability: 104%
[13]
  cell viability: 124%
[14]
  cell viability: 131%
[15]
  cell viability: 112%
[16]
  cell viability: 115%
[17]
  cell viability: 128%
[18]
  cell viability: 102%
[19]
  cell viability: 36.3%
[20]
  cell viability: 19%
[21]
  cell viability: 21%
[22]
  cell viability: 5.01%
[23]
  cell viability: 86.3%
[24]
  cell viability: 100%
[25]
  cell viability: 105%
[26]
  cell viability: 88.2%
[27]
  cell viability: 92.8%
[28]
  cell viability: 103%
[29]
  cell viability: 113%
[30]
  cell viability: 100%
[31]
  cell viability: 47.6%
[32]
  cell viability: 49%
[33]
  cell viability: 4.49%

## Cc1ccc(C(=O)Nc2cccc(C(F)(F)F)c2)cc1-c1ccc2nc(NCCN3CCOCC3)ncc2c1
[1]
  cell viability: 115%
[2]
  cell viability: 118%
[3]
  cell viability: 118%
[4]
  cell viability: 122%
[5]
  cell viability: 107%
[6]
  cell viability: 109%
[7]
  cell viability: 114%
[8]
  cell viability: 101%
[9]
  cell viability: 51.3%
[10]
  cell viability: 31.6%
[11]
  cell viability: 8.49%
[12]
  cell viability: 105%
[13]
  cell viability: 113%
[14]
  cell viability: 112%
[15]
  cell viability: 125%
[16]
  cell viability: 116%
[17]
  cell viability: 114%
[18]
  cell viability: 110%
[19]
  cell viability: 103%
[20]
  cell viability: 41.6%
[21]
  cell viability: 15.7%
[22]
  cell viability: 7.56%
[23]
  cell viability: 109%
[24]
  cell viability: 101%
[25]
  cell viability: 94.5%
[26]
  cell viability: 97%
[27]
  cell viability: 124%
[28]
  cell viability: 92.8%
[29]
  cell viability: 117%
[30]
  cell viability: 97.3%
[31]
  cell viability: 35.8%
[32]
  cell viability: 15.9%
[33]
  cell viability: 6.55%

## COc1ccc(C(CN(C)C)C2(O)CCCCC2)cc1 (centres undefined)
[1]
  cell viability: 83.7%
[2]
  cell viability: 134%
[3]
  cell viability: 106%
[4]
  cell viability: 134%
[5]
  cell viability: 124%
[6]
  cell viability: 118%
[7]
  cell viability: 106%
[8]
  cell viability: 107%
[9]
  cell viability: 117%
[10]
  cell viability: 116%
[11]
  cell viability: 104%
[12]
  cell viability: 78.5%
[13]
  cell viability: 132%
[14]
  cell viability: 122%
[15]
  cell viability: 110%
[16]
  cell viability: 124%
[17]
  cell viability: 125%
[18]
  cell viability: 103%
[19]
  cell viability: 112%
[20]
  cell viability: 119%
[21]
  cell viability: 120%
[22]
  cell viability: 95.9%
[23]
  cell viability: 64.9%
[24]
  cell viability: 120%
[25]
  cell viability: 122%
[26]
  cell viability: 134%
[27]
  cell viability: 163%
[28]
  cell viability: 138%
[29]
  cell viability: 115%
[30]
  cell viability: 122%
[31]
  cell viability: 148%
[32]
  cell viability: 118%
[33]
  cell viability: 135%

## CC(NC(C)(C)C)C(=O)c1cccc(Cl)c1 (centres undefined)
[1]
  cell viability: 94.9%
[2]
  cell viability: 120%
[3]
  cell viability: 102%
[4]
  cell viability: 100%
[5]
  cell viability: 109%
[6]
  cell viability: 104%
[7]
  cell viability: 108%
[8]
  cell viability: 64.6%
[9]
  cell viability: 127%
[10]
  cell viability: 46%
[11]
  cell viability: 103%
[12]
  cell viability: 106%
[13]
  cell viability: 123%
[14]
  cell viability: 117%
[15]
  cell viability: 108%
[16]
  cell viability: 114%
[17]
  cell viability: 119%
[18]
  cell viability: 127%
[19]
  cell viability: 73.2%
[20]
  cell viability: 125%
[21]
  cell viability: 23.1%
[22]
  cell viability: 98.9%
[23]
  cell viability: 99.9%
[24]
  cell viability: 128%
[25]
  cell viability: 123%
[26]
  cell viability: 112%
[27]
  cell viability: 117%
[28]
  cell viability: 140%
[29]
  cell viability: 139%
[30]
  cell viability: 71.9%
[31]
  cell viability: 135%
[32]
  cell viability: 35.7%
[33]
  cell viability: 126%

## CN1CCN(c2c(F)cc3c(=O)c(C(=O)O)cn(CCF)c3c2F)CC1
[1]
  cell viability: 84.2%
[2]
  cell viability: 85.3%
[3]
  cell viability: 103%
[4]
  cell viability: 118%
[5]
  cell viability: 108%
[6]
  cell viability: 105%
[7]
  cell viability: 100%
[8]
  cell viability: 109%
[9]
  cell viability: 109%
[10]
  cell viability: 105%
[11]
  cell viability: 110%
[12]
  cell viability: 96.4%
[13]
  cell viability: 96.4%
[14]
  cell viability: 108%
[15]
  cell viability: 105%
[16]
  cell viability: 110%
[17]
  cell viability: 104%
[18]
  cell viability: 116%
[19]
  cell viability: 111%
[20]
  cell viability: 125%
[21]
  cell viability: 118%
[22]
  cell viability: 101%
[23]
  cell viability: 105%
[24]
  cell viability: 92.6%
[25]
  cell viability: 123%
[26]
  cell viability: 113%
[27]
  cell viability: 111%
[28]
  cell viability: 112%
[29]
  cell viability: 117%
[30]
  cell viability: 129%
[31]
  cell viability: 111%
[32]
  cell viability: 114%
[33]
  cell viability: 118%

## O=C(CC12CC3CC(CC(C3)C1)C2)Nc1cccc2nc(NCCNCCO)ccc12
[1]
  cell viability: 81.1%
[2]
  cell viability: 82.1%
[3]
  cell viability: 73.8%
[4]
  cell viability: 96.5%
[5]
  cell viability: 78.2%
[6]
  cell viability: 77.8%
[7]
  cell viability: 93.8%
[8]
  cell viability: 64.1%
[9]
  cell viability: 84.6%
[10]
  cell viability: 101%
[11]
  cell viability: 36.3%
[12]
  cell viability: 90.5%
[13]
  cell viability: 99.3%
[14]
  cell viability: 83.6%
[15]
  cell viability: 96.3%
[16]
  cell viability: 75.6%
[17]
  cell viability: 76.1%
[18]
  cell viability: 94.4%
[19]
  cell viability: 83.3%
[20]
  cell viability: 82.7%
[21]
  cell viability: 101%
[22]
  cell viability: 21.9%
[23]
  cell viability: 82.8%
[24]
  cell viability: 87.7%
[25]
  cell viability: 65.3%
[26]
  cell viability: 94.8%
[27]
  cell viability: 81.6%
[28]
  cell viability: 72.5%
[29]
  cell viability: 102%
[30]
  cell viability: 78.7%
[31]
  cell viability: 94.6%
[32]
  cell viability: 82.6%
[33]
  cell viability: 40%
